Results on five molecules are retold here after patent US20250223268A1, “4-Methylsulfonylbenzamide Compound, Preparation Method, Herbicidal Composition And Use” (Jiangsu Flag Chemical Industry Co., Ltd., priority 2022, published 2025).

In one data set the test system is Digitaria sanguinalis. Put plainly: Greenhouse herbicidal activity assay, post-emergence. The class given is in vivo. The settings on record: Post-emergence test, rate 150 g a.i./hm^2; grade by fresh weight inhibition rate. The method, boiled down:
(§1)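 Weeds were sown in nutrient soil in 7 cm pots and grown in a growth chamber to the 3-6 leaf stage, then foliar-sprayed, air-dried and returned to the chamber. Fresh weight inhibition was scored 14-21 days later in bands from A (≥80% to 100%) to E (<20%).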
`CC(C)S(=O)(=O)c1c(S(C)(=O)=O)ccc(C(=O)Nc2nnco2)c1Cl` [Compound 3-276]: the “Control efficacy grade, Digitaria sanguinalis” value was “A (Fresh weight inhibition rate≥80% to 100%)”.
Turning to `CS(=O)(=O)c1ccc(C(=O)Nc2nnco2)c(Cl)c1S(=O)(=O)CC1CC1` [Compound 3-302], the “Control efficacy grade, Digitaria sanguinalis” value is given as “A (Fresh weight inhibition rate≥80% to 100%)”.
`CS(=O)(=O)c1ccc(C(=O)Nc2nnco2)c(Cl)c1S(=O)(=O)C1CC1` [Compound 3-307]: the “Control efficacy grade, Digitaria sanguinalis” value is on record as “A (Fresh weight inhibition rate≥80% to 100%)”.
Still for that read-out and setting: to `CS(=O)(=O)c1ccc(C(=O)Nc2nnco2)c(Cl)c1S(=O)(=O)C1CCC1` [Compound 3-312] belongs “A (Fresh weight inhibition rate≥80% to 100%)”; to `CS(=O)(=O)c1ccc(C(=O)Nc2nnco2)c(Cl)c1S(=O)(=O)C1CCCC1` [Compound 3-317], “A (Fresh weight inhibition rate≥80% to 100%)”.

A further data set deals with Eclipta prostrata. The data set is described as above. The class given is in vivo. Conditions: Post-emergence test, rate 150 g a.i./hm^2; grade by fresh weight inhibition rate. In a few lines:
as §1
For `CC(C)S(=O)(=O)c1c(S(C)(=O)=O)ccc(C(=O)Nc2nnco2)c1Cl` [Compound 3-276], the “Control efficacy grade, Eclipta prostrata” value is “A (Fresh weight inhibition rate≥80% to 100%)”.
For `CS(=O)(=O)c1ccc(C(=O)Nc2nnco2)c(Cl)c1S(=O)(=O)CC1CC1` [Compound 3-302], the “Control efficacy grade, Eclipta prostrata” value was “A (Fresh weight inhibition rate≥80% to 100%)”.
Take `CS(=O)(=O)c1ccc(C(=O)Nc2nnco2)c(Cl)c1S(=O)(=O)C1CC1` [Compound 3-307]: the “Control efficacy grade, Eclipta prostrata” value is “A (Fresh weight inhibition rate≥80% to 100%)”.
With `CS(=O)(=O)c1ccc(C(=O)Nc2nnco2)c(Cl)c1S(=O)(=O)C1CCC1` [Compound 3-312], the “Control efficacy grade, Eclipta prostrata” value is “A (Fresh weight inhibition rate≥80% to 100%)”.
The same measure, in the same setting: to `CS(=O)(=O)c1ccc(C(=O)Nc2nnco2)c(Cl)c1S(=O)(=O)C1CCCC1` [Compound 3-317] belongs “A (Fresh weight inhibition rate≥80% to 100%)”.

The next data set has as its system Leptochloa chinensis. Described as above. The class given is in vivo. Conditions: Post-emergence test, rate 150 g a.i./hm^2; grade by fresh weight inhibition rate. In a few lines:
as §1
Consider `CC(C)S(=O)(=O)c1c(S(C)(=O)=O)ccc(C(=O)Nc2nnco2)c1Cl` [Compound 3-276], for which the “Control efficacy grade, Leptochloa chinensis” value is on record as “A (Fresh weight inhibition rate≥80% to 100%)”.
In the case of `CS(=O)(=O)c1ccc(C(=O)Nc2nnco2)c(Cl)c1S(=O)(=O)CC1CC1` [Compound 3-302], the “Control efficacy grade, Leptochloa chinensis” value is given as “A (Fresh weight inhibition rate≥80% to 100%)”.
As to `CS(=O)(=O)c1ccc(C(=O)Nc2nnco2)c(Cl)c1S(=O)(=O)C1CC1` [Compound 3-307], the “Control efficacy grade, Leptochloa chinensis” value was “A (Fresh weight inhibition rate≥80% to 100%)”.
As for `CS(=O)(=O)c1ccc(C(=O)Nc2nnco2)c(Cl)c1S(=O)(=O)C1CCC1` [Compound 3-312], the “Control efficacy grade, Leptochloa chinensis” value is on record as “A (Fresh weight inhibition rate≥80% to 100%)”.
As for `CS(=O)(=O)c1ccc(C(=O)Nc2nnco2)c(Cl)c1S(=O)(=O)C1CCCC1` [Compound 3-317], the “Control efficacy grade, Leptochloa chinensis” value is listed as “A (Fresh weight inhibition rate≥80% to 100%)”.

The subject of another data set is Echinochloa crusgalli. Described as above. In kind it is in vivo. Conditions: Post-emergence test, rate 150 g a.i./hm^2; grade by fresh weight inhibition rate. In a few lines: as §1
On to `CC(C)S(=O)(=O)c1c(S(C)(=O)=O)ccc(C(=O)Nc2nnco2)c1Cl` [Compound 3-276], for which the “Control efficacy grade, Echinochloa crusgalli” value is “A (Fresh weight inhibition rate≥80% to 100%)”.
The same measure, in the same setting: the result for `CS(=O)(=O)c1ccc(C(=O)Nc2nnco2)c(Cl)c1S(=O)(=O)CC1CC1` [Compound 3-302] reads “A (Fresh weight inhibition rate≥80% to 100%)”; that for `CS(=O)(=O)c1ccc(C(=O)Nc2nnco2)c(Cl)c1S(=O)(=O)C1CC1` [Compound 3-307], “A (Fresh weight inhibition rate≥80% to 100%)”.
As for `CS(=O)(=O)c1ccc(C(=O)Nc2nnco2)c(Cl)c1S(=O)(=O)C1CCC1` [Compound 3-312], the “Control efficacy grade, Echinochloa crusgalli” value is recorded as “A (Fresh weight inhibition rate≥80% to 100%)”.
Consider `CS(=O)(=O)c1ccc(C(=O)Nc2nnco2)c(Cl)c1S(=O)(=O)C1CCCC1` [Compound 3-317], for which the “Control efficacy grade, Echinochloa crusgalli” value is reported as “A (Fresh weight inhibition rate≥80% to 100%)”.

A further data set relates to Cyperus iria. The data set is described as above. The class given is in vivo. Conditions: Post-emergence test, rate 150 g a.i./hm^2; grade by fresh weight inhibition rate. In a few lines: as §1
As for `CC(C)S(=O)(=O)c1c(S(C)(=O)=O)ccc(C(=O)Nc2nnco2)c1Cl` [Compound 3-276], the “Control efficacy grade, Cyperus iria” value is recorded as “A (Fresh weight inhibition rate≥80% to 100%)”.
The same measure, in the same setting: the result for `CS(=O)(=O)c1ccc(C(=O)Nc2nnco2)c(Cl)c1S(=O)(=O)CC1CC1` [Compound 3-302] reads “A (Fresh weight inhibition rate≥80% to 100%)”.
Turning to `CS(=O)(=O)c1ccc(C(=O)Nc2nnco2)c(Cl)c1S(=O)(=O)C1CC1` [Compound 3-307], the “Control efficacy grade, Cyperus iria” value was “A (Fresh weight inhibition rate≥80% to 100%)”.
Take `CS(=O)(=O)c1ccc(C(=O)Nc2nnco2)c(Cl)c1S(=O)(=O)C1CCC1` [Compound 3-312]: the “Control efficacy grade, Cyperus iria” value was “A (Fresh weight inhibition rate≥80% to 100%)”.
Consider `CS(=O)(=O)c1ccc(C(=O)Nc2nnco2)c(Cl)c1S(=O)(=O)C1CCCC1` [Compound 3-317], for which the “Control efficacy grade, Cyperus iria” value is on record as “A (Fresh weight inhibition rate≥80% to 100%)”.

The next data set has as its system Oryza sativa subsp. japonica. Put plainly: Greenhouse herbicidal activity and crop safety comparison (Test Example 2). The class given is in vivo. Conditions: Rate 150 g/ha. In a few lines:
(§2)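 Fresh weight inhibition, banded into grades A to E (E <20%), was rated 14-21 days after foliar spraying of 3-6 leaf plants, or 14-30 days after a soil spray applied 24 h post-sowing.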
On to `CC(C)S(=O)(=O)c1c(S(C)(=O)=O)ccc(C(=O)Nc2nnco2)c1Cl` [Compound 3-276], for which the “Oryza sativa subsp. japonica, grading of fresh weight inhibition rate (crop safety)” value is listed as “E (Fresh weight inhibition rate<20%)”.
Turning to `CS(=O)(=O)c1ccc(C(=O)Nc2nnco2)c(Cl)c1S(=O)(=O)CC1CC1` [Compound 3-302], the “Oryza sativa subsp. japonica, grading of fresh weight inhibition rate (crop safety)” value is “E (Fresh weight inhibition rate<20%)”.
On the same count and under the same terms, to `CS(=O)(=O)c1ccc(C(=O)Nc2nnco2)c(Cl)c1S(=O)(=O)C1CC1` [Compound 3-307] belongs “E (Fresh weight inhibition rate<20%)”; to `CS(=O)(=O)c1ccc(C(=O)Nc2nnco2)c(Cl)c1S(=O)(=O)C1CCC1` [Compound 3-312], “E (Fresh weight inhibition rate<20%)”.
In the case of `CS(=O)(=O)c1ccc(C(=O)Nc2nnco2)c(Cl)c1S(=O)(=O)C1CCCC1` [Compound 3-317], the “Oryza sativa subsp. japonica, grading of fresh weight inhibition rate (crop safety)” value is recorded as “E (Fresh weight inhibition rate<20%)”.

A further data set deals with Oryza sativa subsp. indica. The data set is described as above. In kind it is in vivo. Conditions: Rate 150 g/ha. In a few lines: as §2
Regarding `CC(C)S(=O)(=O)c1c(S(C)(=O)=O)ccc(C(=O)Nc2nnco2)c1Cl` [Compound 3-276], the “Oryza sativa subsp. indica, grading of fresh weight inhibition rate (crop safety)” value was “E (Fresh weight inhibition rate<20%)”.
Regarding `CS(=O)(=O)c1ccc(C(=O)Nc2nnco2)c(Cl)c1S(=O)(=O)CC1CC1` [Compound 3-302], the “Oryza sativa subsp. indica, grading of fresh weight inhibition rate (crop safety)” value is listed as “E (Fresh weight inhibition rate<20%)”.
For the molecule `CS(=O)(=O)c1ccc(C(=O)Nc2nnco2)c(Cl)c1S(=O)(=O)C1CC1` [Compound 3-307], the “Oryza sativa subsp. indica, grading of fresh weight inhibition rate (crop safety)” value is on record as “E (Fresh weight inhibition rate<20%)”.
As to `CS(=O)(=O)c1ccc(C(=O)Nc2nnco2)c(Cl)c1S(=O)(=O)C1CCC1` [Compound 3-312], the “Oryza sativa subsp. indica, grading of fresh weight inhibition rate (crop safety)” value is reported as “E (Fresh weight inhibition rate<20%)”.
For the molecule `CS(=O)(=O)c1ccc(C(=O)Nc2nnco2)c(Cl)c1S(=O)(=O)C1CCCC1` [Compound 3-317], the “Oryza sativa subsp. indica, grading of fresh weight inhibition rate (crop safety)” value is on record as “E (Fresh weight inhibition rate<20%)”.

The next data set concerns Leptochloa chinensis. Described as above. The class given is in vivo. The settings on record: Rate 150 g/ha. The method, boiled down:
as §2
On to `CC(C)S(=O)(=O)c1c(S(C)(=O)=O)ccc(C(=O)Nc2nnco2)c1Cl` [Compound 3-276], for which the “Leptochloa chinensis, control efficacy grading (fresh weight inhibition rate)” value is recorded as “A (Fresh weight inhibition rate≥80% to 100%)”.
`CS(=O)(=O)c1ccc(C(=O)Nc2nnco2)c(Cl)c1S(=O)(=O)CC1CC1` [Compound 3-302]: the “Leptochloa chinensis, control efficacy grading (fresh weight inhibition rate)” value is “A (Fresh weight inhibition rate≥80% to 100%)”.
Take `CS(=O)(=O)c1ccc(C(=O)Nc2nnco2)c(Cl)c1S(=O)(=O)C1CC1` [Compound 3-307]: the “Leptochloa chinensis, control efficacy grading (fresh weight inhibition rate)” value is given as “A (Fresh weight inhibition rate≥80% to 100%)”.
For the molecule `CS(=O)(=O)c1ccc(C(=O)Nc2nnco2)c(Cl)c1S(=O)(=O)C1CCC1` [Compound 3-312], the “Leptochloa chinensis, control efficacy grading (fresh weight inhibition rate)” value is “A (Fresh weight inhibition rate≥80% to 100%)”.
In the case of `CS(=O)(=O)c1ccc(C(=O)Nc2nnco2)c(Cl)c1S(=O)(=O)C1CCCC1` [Compound 3-317], the “Leptochloa chinensis, control efficacy grading (fresh weight inhibition rate)” value is on record as “A (Fresh weight inhibition rate≥80% to 100%)”.

In a further data set the test system is Echinochloa crusgalli. The description is as above. In kind it is in vivo. Conditions: Rate 150 g/ha. The method, boiled down:
as §2
For `CC(C)S(=O)(=O)c1c(S(C)(=O)=O)ccc(C(=O)Nc2nnco2)c1Cl` [Compound 3-276], the “Echinochloa crusgalli, control efficacy grading (fresh weight inhibition rate)” value is “A (Fresh weight inhibition rate≥80% to 100%)”.
As for `CS(=O)(=O)c1ccc(C(=O)Nc2nnco2)c(Cl)c1S(=O)(=O)CC1CC1` [Compound 3-302], the “Echinochloa crusgalli, control efficacy grading (fresh weight inhibition rate)” value is recorded as “A (Fresh weight inhibition rate≥80% to 100%)”.
Same read-out and setting: to `CS(=O)(=O)c1ccc(C(=O)Nc2nnco2)c(Cl)c1S(=O)(=O)C1CC1` [Compound 3-307] belongs “A (Fresh weight inhibition rate≥80% to 100%)”.
Consider `CS(=O)(=O)c1ccc(C(=O)Nc2nnco2)c(Cl)c1S(=O)(=O)C1CCC1` [Compound 3-312], for which the “Echinochloa crusgalli, control efficacy grading (fresh weight inhibition rate)” value is recorded as “A (Fresh weight inhibition rate≥80% to 100%)”.
The same measure, in the same setting: to `CS(=O)(=O)c1ccc(C(=O)Nc2nnco2)c(Cl)c1S(=O)(=O)C1CCCC1` [Compound 3-317] belongs “A (Fresh weight inhibition rate≥80% to 100%)”.
